Experimental data as given in ChEMBL document CHEMBL1201862, “PubChem BioAssay data set” (2004).
Activity calls are given as the source filed them.

What was measured:
Escherichia coli = assay: microbe, parasite or virus in culture
A-375 [1] = assay: proliferation inhibition in MITF-low A375 cells – cell-based, cherry-pick samples, set 2, counter-screen for MITF modulator project, dose response (AID 540335); type: functional; settings: Homo sapiens
[2] = target: Mitogen-activated protein kinase 10 (Homo sapiens, UniProt P53779); assay: Dose response biochemical screening assay for inhibitors of c-Jun N-Terminal Kinase 3 (JNK3). [Related pubchem assays: 746 ]
A-375 [3] = assay: MITF: Counter assay: A375 proliferation Measured in Cell-Based System Using Plate Reader - 2084-03_Inhibitor_Dose_DryPowder_Activity. [Related pubchem assays (depositor defined):AID488944]; type: functional; settings: Homo sapiens
Caspase-6 = target: T1, Caspase-6 (Homo sapiens, UniProt P55212); assay: inhibition of CASP6 peptide cleavage – biochemical, VEID-R110 fluorescence, cherry-pick, dose response (AID 720632)
T1 sequence (P55212 whole entry): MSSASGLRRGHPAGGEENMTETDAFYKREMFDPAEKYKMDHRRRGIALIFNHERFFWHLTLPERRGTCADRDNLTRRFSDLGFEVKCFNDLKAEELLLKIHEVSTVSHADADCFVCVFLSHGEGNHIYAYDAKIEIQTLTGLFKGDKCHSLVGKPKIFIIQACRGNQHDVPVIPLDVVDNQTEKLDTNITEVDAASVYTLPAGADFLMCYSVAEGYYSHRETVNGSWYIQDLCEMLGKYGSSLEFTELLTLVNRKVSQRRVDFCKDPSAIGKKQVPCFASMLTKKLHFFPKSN

CAAX prenyl protease 2 = CAAX prenyl protease 2 (Homo sapiens, UniProt Q9Y256); assay: inhibition of Ras-converting CAAX protease Rce1 – biochemical, yeast membranes, quenched-peptide fluorescence, cherry-pick, dose response (AID 588849)
Cysteine protease ATG4B = target: T2, Cysteine protease ATG4B (Homo sapiens, UniProt Q9Y4P1); type: functional;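 further: Fluorescence-based dose-response confirmation assay measuring inhibition of ATG4B activity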
T2 sequence (Q9Y4P1 whole entry): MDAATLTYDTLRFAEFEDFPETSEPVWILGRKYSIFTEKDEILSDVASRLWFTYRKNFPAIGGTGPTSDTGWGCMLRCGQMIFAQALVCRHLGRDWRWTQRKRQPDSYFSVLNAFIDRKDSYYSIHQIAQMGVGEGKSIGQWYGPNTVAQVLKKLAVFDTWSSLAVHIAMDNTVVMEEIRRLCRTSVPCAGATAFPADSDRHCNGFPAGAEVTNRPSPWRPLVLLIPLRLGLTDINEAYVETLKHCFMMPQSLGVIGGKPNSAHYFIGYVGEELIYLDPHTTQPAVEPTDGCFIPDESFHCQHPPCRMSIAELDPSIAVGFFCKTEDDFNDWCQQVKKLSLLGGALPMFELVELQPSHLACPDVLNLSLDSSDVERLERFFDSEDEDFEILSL

[4] = Trypanosoma cruzi growth suppression in host cells – NIH3T3 host cells, beta-gal luminescence, confirmation (AID 2044); type: functional, cell-based;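 further: intracellular parasites grown in NIH/3T3 mouse fibroblasts as host cells; luminescent beta-galactosidase reporter signal from transgenic T. cruzi replicating inside host cells; inhibitors lower the luminescence signal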
Phospholipase A2 = Phospholipase A2 (Homo sapiens, UniProt P04054); type: functional;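 further: confirmatory dose-response counterscreen on phospholipase A2, testing hits that came from an ultra-high-throughput screen for ATG4B inhibitors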
X-box-binding protein 1 = X-box-binding protein 1 (Homo sapiens, UniProt P17861); type: functional, Cricetulus griseus;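 further: confirmatory dose-response counter-screen serving a CHOP assay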
[5] = general mammalian cell viability loss – inhibitor set, cherry-pick, set 2, cytotoxicity control for miR-122 modulator project, dose response (AID 720697); type: functional, cell-based
[6] = activation of miR-122 Renilla sensor silencing – cell-based, Huh7 psiCHECK-miR122, Renilla luciferase, cherry-picked, dose response (AID 651956); type: functional;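 further: huh7 hepatoma cells stably carrying a psiCHECK-2 miR-122 sensor plasmid; renilla luciferase signal reporting endogenous miR-122 activity after 48 h compound exposure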
Vero = assay: mammalian cell viability reduction – secondary assay, cytotoxicity control for West Nile virus antiviral project, dose response (AID 1650); type: functional; settings: Chlorocebus sabaeus
[7] = target: 5-hydroxytryptamine receptor 5A (Homo sapiens, UniProt P47898); assay: Counterscreen for agonists of OPRM1-OPRD1 heterodimerization: luminescence-based cell-based high throughput dose response assay to identify agonists of 5-hydroxytryptamine (serotonin) 5A receptor (HTR5A). [Related pubchem assays (depositor defined):AID504326, AID504355, AID504692, AID504904, AID504905]; type: functional
[8] = target: DNA damage-inducible transcript 3 protein (Mus musculus, UniProt P35639); type: functional, Cricetulus griseus
[9] = target: Delta-type opioid receptor (Homo sapiens, UniProt P41143); assay: Counterscreen for agonists of heterodimerization of the mu 1 (OPRM1) and delta 1 (OPRD1) opioid receptors: Luminescence-based cell-based high throughput dose response assay to identify agonists of OPRD1 homodimerization. [Related pubchem assays (depositor defined):AID504326, AID504355, AID504692, AID504904, AID504905]; type: functional
[10] = NIH3T3 cell viability loss – ATP luminescence, mouse fibroblasts, counter-screen, dose response (AID 2010); type: functional, cell-based;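 further: cells exposed to compound for about 90 hours before reading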
[11] = general mammalian cell viability loss – activator set, cherry-pick, cytotoxicity control for miR-122 modulator project, dose response (AID 720690); type: functional, cell-based;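 further: HEK293T human cells scored for general mammalian cytotoxicity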
Mu-type opioid receptor = Mu-type opioid receptor (Homo sapiens, UniProt P35372); assay: Counterscreen for agonists of heterodimerization of the mu 1 (OPRM1) and delta 1 (OPRD1) opioid receptors: Luminescence-based cell-based high throughput dose response assay to identify agonists of OPRM1 homodimerization.; type: functional;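 further: U2OS cells expressing OPRM1 and beta-arrestin as split beta-galactosidase partners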
Caspase-8 = Caspase-8 (Homo sapiens, UniProt Q14790); assay: inhibitors of purified CASP8 protease – biochemical, Z-IETD-R110 fluorescence, cherry-picked samples, selectivity assay for caspase-6 inhibitor project, dose response (AID 743294)
[12] = target: DNA repair protein RAD52 homolog (Homo sapiens, UniProt P43351); type: functional, biochemical
Caspase-7 = target: T3, Caspase-7 (Homo sapiens, UniProt P55210); assay: caspase-7 enzyme inhibition, selectivity check – biochemical, DEVD-R110 fluorescence, cherry-pick, selectivity assay for caspase-6 inhibitor project, dose response (AID 743295); type: functional
T3 sequence (P55210 whole entry): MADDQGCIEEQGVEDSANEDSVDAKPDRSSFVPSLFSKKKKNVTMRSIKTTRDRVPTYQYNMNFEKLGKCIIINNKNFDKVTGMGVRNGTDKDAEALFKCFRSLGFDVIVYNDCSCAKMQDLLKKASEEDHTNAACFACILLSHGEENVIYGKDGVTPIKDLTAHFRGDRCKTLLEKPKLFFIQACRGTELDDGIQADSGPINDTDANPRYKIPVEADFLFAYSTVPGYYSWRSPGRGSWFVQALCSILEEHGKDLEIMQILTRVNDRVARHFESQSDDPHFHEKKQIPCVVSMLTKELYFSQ

Caspase-9 = target: T4, Caspase-9 (Homo sapiens, UniProt P55211); assay: inhibitors of purified CASP9 protease – biochemical, fluorescence, plate reader, cherry-picked samples, selectivity assay for caspase-6 inhibitor project, dose response (AID 743293)
T4 sequence (P55211 whole entry): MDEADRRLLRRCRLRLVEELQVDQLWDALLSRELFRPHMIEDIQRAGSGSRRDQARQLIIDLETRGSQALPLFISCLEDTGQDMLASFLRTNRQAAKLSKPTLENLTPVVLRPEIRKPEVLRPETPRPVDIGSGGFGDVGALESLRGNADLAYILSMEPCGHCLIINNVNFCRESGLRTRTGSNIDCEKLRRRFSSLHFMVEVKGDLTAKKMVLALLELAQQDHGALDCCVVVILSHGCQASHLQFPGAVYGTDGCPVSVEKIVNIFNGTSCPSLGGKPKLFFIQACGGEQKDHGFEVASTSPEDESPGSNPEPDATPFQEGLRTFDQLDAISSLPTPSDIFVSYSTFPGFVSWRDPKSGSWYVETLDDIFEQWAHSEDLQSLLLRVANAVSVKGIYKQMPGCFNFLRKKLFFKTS

[13] = HEK-293T viability loss, compound-treated – cell-based, uHTS hits, cytotoxicity control for B/T-cell NF-kB inhibitor project, dose response (AID 489019); type: functional;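 further: IC50 reflects cytotoxicity as loss of cell viability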
INS1 = assay: INS-1E survival protection against cytokine death – cell-based, luminescence, retest, dose response (AID 449756); type: functional; settings: Rattus norvegicus;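 further: cell death triggered by IL-1 beta plus TNF-alpha plus IFN-gamma mixture; protective hits raise ATP signal compared with cytokine alone wells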
[14] = target: T5, Sentrin-specific protease 8 (Homo sapiens, UniProt Q96LD8); type: functional
T5 sequence (Q96LD8 whole entry): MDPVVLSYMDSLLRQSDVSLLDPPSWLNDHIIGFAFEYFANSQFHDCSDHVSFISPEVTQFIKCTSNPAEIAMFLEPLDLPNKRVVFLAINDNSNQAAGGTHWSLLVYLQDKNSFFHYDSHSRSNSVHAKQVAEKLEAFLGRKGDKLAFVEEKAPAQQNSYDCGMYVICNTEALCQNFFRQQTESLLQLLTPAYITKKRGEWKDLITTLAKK

[15] = target: T5, Sentrin-specific protease 8; type: functional; remark: listed apart in the source
Jurkat = assay: blockers of NF-kB activation in T cells – Jurkat, luciferase reporter, luminescence, B- and T-cell, dose response (AID 489004); type: functional, cell-based; settings: Homo sapiens;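 further: NF-kB luciferase reporter Jurkat cells stimulated with PMA plus ionomycin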
[16] = target: T6, Replicative DNA helicase DnaB (Mycobacterium tuberculosis, UniProt P9WMR3); assay: DnaB intein splicing inhibitors, dose response, biochemical, cell-free fluorescence (AID 449749); type: functional
T6 sequence (P9WMR3 whole entry): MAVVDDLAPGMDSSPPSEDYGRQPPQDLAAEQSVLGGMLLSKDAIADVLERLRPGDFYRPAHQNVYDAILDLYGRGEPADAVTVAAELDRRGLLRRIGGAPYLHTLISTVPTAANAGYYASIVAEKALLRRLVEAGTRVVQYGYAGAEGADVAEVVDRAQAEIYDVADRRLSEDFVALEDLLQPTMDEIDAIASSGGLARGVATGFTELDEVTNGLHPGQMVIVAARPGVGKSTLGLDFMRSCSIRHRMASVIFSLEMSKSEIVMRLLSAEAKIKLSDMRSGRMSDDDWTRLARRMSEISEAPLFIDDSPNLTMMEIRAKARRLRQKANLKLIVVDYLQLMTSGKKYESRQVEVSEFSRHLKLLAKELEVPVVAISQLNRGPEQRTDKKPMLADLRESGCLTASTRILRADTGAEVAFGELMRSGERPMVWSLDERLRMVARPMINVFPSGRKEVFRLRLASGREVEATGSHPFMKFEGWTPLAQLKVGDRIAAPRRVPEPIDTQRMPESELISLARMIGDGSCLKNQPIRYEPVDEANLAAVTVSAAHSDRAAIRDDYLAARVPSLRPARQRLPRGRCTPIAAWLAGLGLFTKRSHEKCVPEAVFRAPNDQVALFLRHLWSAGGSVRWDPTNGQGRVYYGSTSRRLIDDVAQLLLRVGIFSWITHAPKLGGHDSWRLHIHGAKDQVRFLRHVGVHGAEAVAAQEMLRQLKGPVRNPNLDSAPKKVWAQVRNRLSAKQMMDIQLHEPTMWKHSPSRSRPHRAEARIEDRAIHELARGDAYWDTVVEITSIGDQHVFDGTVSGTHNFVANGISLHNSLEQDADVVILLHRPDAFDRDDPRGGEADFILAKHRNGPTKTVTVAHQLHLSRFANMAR

Protein RecA = target: T7, Protein RecA (Mycobacterium tuberculosis, UniProt P9WHJ3); assay: Fluorescence Cell-Free Homogeneous Dose Retest to Identify Inhibitors of RecA-Intein Splicing Activity. [Related pubchem assays (depositor defined):AID2097, AID2223, AID489010, AID492950]; type: functional
T7 sequence (P9WHJ3 whole entry): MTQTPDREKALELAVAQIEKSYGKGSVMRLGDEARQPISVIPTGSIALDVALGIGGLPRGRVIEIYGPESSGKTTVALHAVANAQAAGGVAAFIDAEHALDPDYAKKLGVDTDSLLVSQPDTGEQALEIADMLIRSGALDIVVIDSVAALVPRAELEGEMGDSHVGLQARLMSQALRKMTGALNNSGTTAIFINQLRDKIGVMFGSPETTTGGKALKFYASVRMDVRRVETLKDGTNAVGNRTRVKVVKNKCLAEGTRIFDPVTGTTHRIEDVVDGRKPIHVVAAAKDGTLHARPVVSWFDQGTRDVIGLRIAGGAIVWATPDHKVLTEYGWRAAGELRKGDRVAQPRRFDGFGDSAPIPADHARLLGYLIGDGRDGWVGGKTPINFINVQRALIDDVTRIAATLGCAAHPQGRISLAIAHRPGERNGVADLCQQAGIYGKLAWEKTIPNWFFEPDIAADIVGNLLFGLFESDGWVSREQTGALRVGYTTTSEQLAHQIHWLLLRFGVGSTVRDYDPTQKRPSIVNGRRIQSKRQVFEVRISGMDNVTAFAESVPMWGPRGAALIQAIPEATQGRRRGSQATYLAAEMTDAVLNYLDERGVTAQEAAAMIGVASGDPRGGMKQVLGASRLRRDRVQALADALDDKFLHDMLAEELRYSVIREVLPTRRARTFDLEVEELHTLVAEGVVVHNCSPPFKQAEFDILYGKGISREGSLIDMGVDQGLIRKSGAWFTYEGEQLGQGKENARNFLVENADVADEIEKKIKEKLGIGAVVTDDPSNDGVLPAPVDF

[17] = microbe, parasite or virus in culture; type: functional; settings: Mycobacterium tuberculosis

DNA repair protein RAD52 homolog, sequence (P43351 whole entry): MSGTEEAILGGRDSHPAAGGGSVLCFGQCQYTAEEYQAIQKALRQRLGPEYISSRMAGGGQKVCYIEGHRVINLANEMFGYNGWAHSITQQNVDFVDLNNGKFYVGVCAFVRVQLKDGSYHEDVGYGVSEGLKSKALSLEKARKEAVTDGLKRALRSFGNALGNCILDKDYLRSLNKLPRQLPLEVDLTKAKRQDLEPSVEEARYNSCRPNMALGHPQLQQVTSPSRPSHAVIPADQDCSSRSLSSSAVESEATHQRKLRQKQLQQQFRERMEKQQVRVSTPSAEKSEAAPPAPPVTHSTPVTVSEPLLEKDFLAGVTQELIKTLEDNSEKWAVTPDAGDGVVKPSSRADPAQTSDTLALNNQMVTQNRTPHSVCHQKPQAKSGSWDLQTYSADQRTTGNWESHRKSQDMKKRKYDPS
DNA damage-inducible transcript 3 protein, sequence (P35639 whole entry): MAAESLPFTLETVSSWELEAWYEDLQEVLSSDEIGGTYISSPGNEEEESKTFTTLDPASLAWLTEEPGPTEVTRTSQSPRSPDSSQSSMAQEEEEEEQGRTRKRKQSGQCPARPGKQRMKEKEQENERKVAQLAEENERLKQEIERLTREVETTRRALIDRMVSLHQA
CAAX prenyl protease 2, sequence (Q9Y256 whole entry): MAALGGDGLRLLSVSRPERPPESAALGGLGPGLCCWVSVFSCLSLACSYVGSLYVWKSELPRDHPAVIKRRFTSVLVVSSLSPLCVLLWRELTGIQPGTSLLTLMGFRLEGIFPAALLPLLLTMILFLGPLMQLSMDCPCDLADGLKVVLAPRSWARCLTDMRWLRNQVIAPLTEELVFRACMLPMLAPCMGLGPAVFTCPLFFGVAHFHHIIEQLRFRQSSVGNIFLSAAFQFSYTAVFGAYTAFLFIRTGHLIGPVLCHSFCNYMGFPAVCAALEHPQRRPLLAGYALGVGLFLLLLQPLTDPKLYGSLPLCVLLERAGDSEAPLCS
5-hydroxytryptamine receptor 5A, sequence (P47898 whole entry): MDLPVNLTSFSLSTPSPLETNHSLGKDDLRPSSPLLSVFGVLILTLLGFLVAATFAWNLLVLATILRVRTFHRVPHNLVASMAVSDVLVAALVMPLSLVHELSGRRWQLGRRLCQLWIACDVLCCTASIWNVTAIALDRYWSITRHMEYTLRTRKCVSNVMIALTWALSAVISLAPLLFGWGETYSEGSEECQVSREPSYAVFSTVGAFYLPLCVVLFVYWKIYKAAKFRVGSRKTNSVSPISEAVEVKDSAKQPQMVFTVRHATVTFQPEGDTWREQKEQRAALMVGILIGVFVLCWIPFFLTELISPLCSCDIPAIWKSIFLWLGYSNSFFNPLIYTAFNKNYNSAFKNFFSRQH
Delta-type opioid receptor, sequence (P41143 whole entry): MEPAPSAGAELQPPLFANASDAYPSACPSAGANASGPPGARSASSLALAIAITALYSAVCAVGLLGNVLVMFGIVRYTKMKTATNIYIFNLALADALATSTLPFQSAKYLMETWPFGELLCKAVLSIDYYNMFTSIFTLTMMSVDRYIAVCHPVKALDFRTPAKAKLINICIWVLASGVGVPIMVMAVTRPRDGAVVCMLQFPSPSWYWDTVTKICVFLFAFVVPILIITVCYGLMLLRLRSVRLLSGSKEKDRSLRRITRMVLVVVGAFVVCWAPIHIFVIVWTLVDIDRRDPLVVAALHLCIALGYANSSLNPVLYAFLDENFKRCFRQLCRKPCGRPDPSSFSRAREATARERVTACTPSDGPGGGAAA
Mu-type opioid receptor, sequence (P35372 whole entry): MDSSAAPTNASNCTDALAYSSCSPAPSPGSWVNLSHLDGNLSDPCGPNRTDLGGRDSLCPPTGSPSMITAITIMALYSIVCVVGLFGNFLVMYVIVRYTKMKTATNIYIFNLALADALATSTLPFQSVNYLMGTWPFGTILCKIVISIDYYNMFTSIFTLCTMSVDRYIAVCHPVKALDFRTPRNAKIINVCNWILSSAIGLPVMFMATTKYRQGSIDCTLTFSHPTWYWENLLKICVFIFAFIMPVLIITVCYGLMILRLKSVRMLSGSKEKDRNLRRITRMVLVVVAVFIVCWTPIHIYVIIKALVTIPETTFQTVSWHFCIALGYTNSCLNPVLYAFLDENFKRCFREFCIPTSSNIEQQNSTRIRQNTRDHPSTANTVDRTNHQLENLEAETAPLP
X-box-binding protein 1, sequence (P17861 whole entry): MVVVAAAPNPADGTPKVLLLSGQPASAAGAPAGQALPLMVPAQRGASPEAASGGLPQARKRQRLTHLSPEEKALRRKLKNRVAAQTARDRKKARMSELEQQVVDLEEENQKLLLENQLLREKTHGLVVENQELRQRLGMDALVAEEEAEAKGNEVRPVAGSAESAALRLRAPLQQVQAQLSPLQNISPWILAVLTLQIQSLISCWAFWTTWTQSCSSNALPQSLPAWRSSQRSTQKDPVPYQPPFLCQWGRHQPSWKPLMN
Caspase-8, sequence (Q14790 217-374 limits assumed): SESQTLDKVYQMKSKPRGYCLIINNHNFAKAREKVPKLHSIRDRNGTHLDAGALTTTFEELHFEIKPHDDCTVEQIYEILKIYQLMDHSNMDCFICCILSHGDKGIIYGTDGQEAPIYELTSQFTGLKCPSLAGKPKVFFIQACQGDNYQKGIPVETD
Caspase-8, sequence (Q14790 385-479 limits assumed): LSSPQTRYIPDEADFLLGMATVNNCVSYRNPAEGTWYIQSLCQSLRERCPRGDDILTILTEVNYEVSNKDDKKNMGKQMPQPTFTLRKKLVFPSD
Phospholipase A2, sequence (P04054 whole entry): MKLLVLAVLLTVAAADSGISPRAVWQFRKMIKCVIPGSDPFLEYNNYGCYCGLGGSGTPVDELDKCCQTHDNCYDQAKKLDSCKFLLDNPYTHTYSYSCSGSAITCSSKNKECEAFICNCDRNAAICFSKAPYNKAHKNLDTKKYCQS
Mitogen-activated protein kinase 10, sequence (P53779 whole entry): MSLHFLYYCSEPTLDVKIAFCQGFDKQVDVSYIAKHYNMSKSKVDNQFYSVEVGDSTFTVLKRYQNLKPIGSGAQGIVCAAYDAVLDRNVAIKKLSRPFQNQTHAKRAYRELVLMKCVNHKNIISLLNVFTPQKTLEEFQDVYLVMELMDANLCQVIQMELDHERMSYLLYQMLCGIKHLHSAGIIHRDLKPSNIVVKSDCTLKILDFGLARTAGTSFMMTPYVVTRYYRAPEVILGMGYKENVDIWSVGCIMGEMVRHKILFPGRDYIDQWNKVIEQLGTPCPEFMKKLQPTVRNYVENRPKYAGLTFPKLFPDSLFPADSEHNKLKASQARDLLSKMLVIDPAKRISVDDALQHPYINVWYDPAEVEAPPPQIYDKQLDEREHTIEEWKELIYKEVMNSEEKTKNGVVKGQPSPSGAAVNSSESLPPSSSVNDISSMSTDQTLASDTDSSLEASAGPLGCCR

Cc1csc(NC(=O)c2c(-c3c(Cl)cccc3Cl)noc2C)n1
active: AC50 (Escherichia coli) 32.8 µM

Cc1ccc2nc(Cc3ccc(N)cc3)oc2c1
active: AC50 (A-375 [1]) > 35 µM | AC50 (A-375 [3]) > 35 µM
49.9 µM (not active): IC50 [2]

O=C(N/N=C/c1cn(Cc2ccccc2)c2ccccc12)c1cc(O)cc(O)c1
active: AC50 (Caspase-6) 3.09 µM | AC50 (CAAX prenyl protease 2) 12.6 µM

Clc1ccc2c(N/N=C/c3ccccc3Br)ccnc2c1
inactive: EC50 [7] > 92.5 µM | EC50 [9] > 92.5 µM | EC50 (Mu-type opioid receptor) > 92.5 µM
10 µM: Absolute IC50 (XBP1) (X-box-binding protein 1) | Absolute IC50 (CHOP) [8]
> 60 µM (not active): EC50 [10]
active: IC50 (Cysteine protease ATG4B) 3.17 µM | EC50 [4] 1.02 µM | IC50 (Phospholipase A2) 1.75 µM | AC50 [5] 7.49 µM | AC50 [6] 39.6 µM | CC50 (Vero) 7.23 µM | AC50 [11] 16 µM

COc1cc(NC(C)CCCN)c2ncccc2c1 (configuration not stated) [PRIMAQUINE PHOSPHATE]
inactive: AC50 (Caspase-9) > 70 µM | IC50 [13] > 80 µM | IC50 (Jurkat) 38 µM
active: AC50 (Caspase-8) 57.9 µM | AC50 [12] 5.55 µM | AC50 (Caspase-7) 4.07 µM | AC50 (INS1) 3.83 µM | IC50 [14] 0.987 µM | IC50 [15] 0.935 µM | AC50 [16] 9.98 µM | EC50 (Protein RecA) 1.17 µM | AC50 (Caspase-6) 1.9 µM | CC50 [17] > 40 µM
